Source: patent US11884673B2, “Modulators of ion channel receptors and uses thereof” (BIONOMICS LIMITED, priority 2018, dated 2024)

Each molecule was assayed against T1, hNav1.7 (Homo sapiens, UniProt Q15858) (assay: hNav1.7 inactivated state (SIS) automated patch clamp electrophysiology (Patchliner, whole-cell)). Details: Assay Conc. 10 uM; inactivated state protocol; hNav1.7 stably expressed in human embryonic kidney cells; read-out: hNav1.7 SIS (% inh).
T1 construct: expressed in transfected cells
T1 sequence (Q15858 whole entry): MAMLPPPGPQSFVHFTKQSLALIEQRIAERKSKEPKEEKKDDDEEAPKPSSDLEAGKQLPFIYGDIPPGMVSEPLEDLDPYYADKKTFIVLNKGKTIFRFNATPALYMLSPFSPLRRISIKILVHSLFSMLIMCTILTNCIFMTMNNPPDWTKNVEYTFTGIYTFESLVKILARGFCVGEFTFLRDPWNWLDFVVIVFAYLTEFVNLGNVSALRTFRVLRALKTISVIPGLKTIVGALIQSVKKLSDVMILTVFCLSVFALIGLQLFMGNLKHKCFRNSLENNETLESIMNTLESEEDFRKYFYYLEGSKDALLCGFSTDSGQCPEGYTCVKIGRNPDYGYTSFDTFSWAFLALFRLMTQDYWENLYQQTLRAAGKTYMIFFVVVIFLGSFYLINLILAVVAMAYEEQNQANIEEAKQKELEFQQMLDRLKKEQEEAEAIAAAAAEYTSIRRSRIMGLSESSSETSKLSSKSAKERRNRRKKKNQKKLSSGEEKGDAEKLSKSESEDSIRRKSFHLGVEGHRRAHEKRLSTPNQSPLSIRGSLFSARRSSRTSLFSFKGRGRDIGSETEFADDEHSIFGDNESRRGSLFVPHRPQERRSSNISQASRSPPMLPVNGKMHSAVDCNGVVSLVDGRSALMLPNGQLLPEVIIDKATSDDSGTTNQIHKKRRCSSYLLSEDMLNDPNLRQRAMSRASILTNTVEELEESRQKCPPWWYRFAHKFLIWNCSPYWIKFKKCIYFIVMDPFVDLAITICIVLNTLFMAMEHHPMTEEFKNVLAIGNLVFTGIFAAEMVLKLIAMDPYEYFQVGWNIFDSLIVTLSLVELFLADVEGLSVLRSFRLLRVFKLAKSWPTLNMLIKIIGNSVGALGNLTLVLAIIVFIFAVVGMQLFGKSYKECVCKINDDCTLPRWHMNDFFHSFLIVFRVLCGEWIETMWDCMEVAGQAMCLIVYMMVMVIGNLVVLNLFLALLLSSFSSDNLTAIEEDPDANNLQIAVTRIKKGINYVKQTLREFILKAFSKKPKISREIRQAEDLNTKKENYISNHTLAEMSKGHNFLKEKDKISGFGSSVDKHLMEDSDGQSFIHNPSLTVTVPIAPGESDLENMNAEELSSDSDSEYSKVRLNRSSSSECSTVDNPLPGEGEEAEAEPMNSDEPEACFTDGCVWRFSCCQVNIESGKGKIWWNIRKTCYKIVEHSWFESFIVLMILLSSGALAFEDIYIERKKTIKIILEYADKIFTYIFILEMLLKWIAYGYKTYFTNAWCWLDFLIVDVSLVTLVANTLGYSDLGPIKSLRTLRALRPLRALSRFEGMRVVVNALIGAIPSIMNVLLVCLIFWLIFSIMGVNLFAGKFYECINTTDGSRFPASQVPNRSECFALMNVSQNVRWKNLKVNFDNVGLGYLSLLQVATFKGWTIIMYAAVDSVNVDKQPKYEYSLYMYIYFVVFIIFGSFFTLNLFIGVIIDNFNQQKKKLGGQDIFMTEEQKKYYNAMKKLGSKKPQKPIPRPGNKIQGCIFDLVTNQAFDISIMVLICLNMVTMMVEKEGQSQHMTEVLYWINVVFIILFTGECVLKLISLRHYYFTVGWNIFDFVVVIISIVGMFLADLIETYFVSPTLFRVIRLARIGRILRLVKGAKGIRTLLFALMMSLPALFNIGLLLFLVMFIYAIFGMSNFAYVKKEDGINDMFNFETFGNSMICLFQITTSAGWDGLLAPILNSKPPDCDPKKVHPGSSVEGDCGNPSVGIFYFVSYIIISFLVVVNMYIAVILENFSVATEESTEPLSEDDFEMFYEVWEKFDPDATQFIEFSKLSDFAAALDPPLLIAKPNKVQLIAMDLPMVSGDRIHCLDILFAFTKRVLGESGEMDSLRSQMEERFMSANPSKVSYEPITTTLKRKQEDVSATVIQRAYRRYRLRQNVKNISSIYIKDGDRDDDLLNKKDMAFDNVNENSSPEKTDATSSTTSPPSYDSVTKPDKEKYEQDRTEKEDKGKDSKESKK
Assay type: cell-based
Experimental: hNav1.7, hNav1.2, hNav1.3, hNav1.4, hNav1.5, hNav1.6 were stably expressed in human embryonic kidney cells and kept under constant antibiotic selection. For in vitro assays, cells were maintained in appropriate growth medium at 37° C. and 5% CO2 in a humidified incubator.
Nav1.x expressing cells plated in T-25 flasks for 2-3 days prior to use and grown to 70-85% confluence were briefly trypsinized to obtain a single cell suspension of ˜2-3×10^6 cells/ml. All electrophysiological recordings were performed at ambient temperature (21-23° C.) using automated patch clamp (Patchliner, Nanion Technologies GmbH) in the whole-cell configuration using the following solutions: Internal solution contained (in mM): CsCl (50), NaCl (10), CsF (60), EGTA (20), HEPES (10), pH 7.2 KOH, 285 mOsmol·Kg^−1. External (bath) solution contained (in mM): NaCl (140), KCl (4), MgCl2 (1), CaCl2) (2) D-Glucose monohydrate (5), HEPES (10), pH 7.4 NaOH, 298 mOsmol·kg^−1.
The following voltage protocols were used to assess different Nav1.x channel states:
For each Nav1.x channel, a steady state inactivation curve was obtained in order to calculate the voltage resulting in 50% channel inactivation (V0.5inact). A 2 pulse protocol was then employed in which cells held at a voltage corresponding to 20 mV more negative to V0.5 inact were depolarised to −10 mV for 20 ms before returning to the previous holding voltage. This test pulse constituted P1 and represents 100% available (non-inactivated) Nav1.x channels. The same cell was then depolarised for 8 s to a voltage corresponding to 7 mV more positive than V0.5inact in order to cause channel inactivation. Following a brief (2 ms) hyperpolarising voltage step to −120 mV (to reset the activation gate), cells were again subjected to a depolarising test pulse (P2) to −10 mV for 20 ms before returning to the holding potential. Each sequence was repeated 6× at 30 s intervals. Using this protocol, control P2 current amplitudes (representing the % channels available following 8 s inactivation) was ˜50% of control P1 current amplitude. 6 repetitions of this recording sequence were made in the control bath solution and then again 2 minutes after compound addition and thereafter at increasing compound concentrations. % inhibition was calculated by (1−(P2drug at repetition 6/P2control at repetition 6))*100. Data were either presented as % block by a single concentration of drug or an estimated eIC50 determined from 2-3 drug concentrations which was determined by fitting data with a sigmoidal dose response curve (variable slope) using GraphPad Prism software (Version 6.0).
All compounds were dissolved in DMSO to 20 mM initially. Subsequent dilutions in DMSO were made to achieve 200× final bath concentrations. DMSO compound stocks were finally diluted 1/200 in bath solution just prior to assay resulting in a final DMSO concentration of 0.5% which was not found to affect control current amplitude.

| Compound | inhibition at 10 µM [%] |
| --- | --- |
| CC(C)(Oc1cccc(CNC(=O)c2cccn3ccnc23)c1)c1ccccc1F [Number 52] | 83 |
| O=C(NCc1cc(OCc2ccccc2F)ccc1F)c1cccn2ccnc12 [Number 89] | 99 |
| Cc1cn2ccc(C(=O)NCc3cc(OCc4ccccc4F)ccc3F)cc2n1 [Number 72] | 100 |
| Cn1ccc(C(=O)NCc2cc(OCc3ccccc3F)ccc2F)cc1=O [Number 55] | 49 |
| O=C(NCc1cc(OCc2ccccc2F)ccc1F)c1ccn2ncnc2c1 [Number 82] | 42 |
| O=C(NCc1cc(OCc2ccccc2F)ccc1F)c1cccn2ncnc12 [Number 78] | 83 |
| O=C(NCc1cc(OCc2ccccc2F)ccc1F)c1ccc2cncn2c1 [Number 85] | 55 |
| O=C(NCc1cc(OCc2ccccc2F)ccc1F)c1ccn2cnnc2c1 [Number 74] | 58 |
| O=C(NCc1cc(OCc2ccccc2F)ccc1F)c1cn2cccnc2n1 [Number 59] | 42 |
| COC[C@H](C)N(Cc1cccc(OCc2ccccc2F)c1)C(=O)c1cn2ccccc2n1 [Number 54] | 55 |
| CC(C)(NC(=O)c1ccn2ccnc2c1)c1cccc(OCc2ccccc2F)c1 [Number 11] | 45 |
| O=C(Cc1cn2ccccc2n1)NCc1cccc(OCc2ccccc2F)c1 [Number 76] | 44 |
| Cc1cn2ccc(C(=O)NCc3cccc(OCc4ccccc4F)c3)cc2n1 [Number 71] | 66 |
| COC[C@@H](C)N(Cc1cccc(OCc2ccccc2F)c1)C(=O)c1cn2ccccc2n1 [Number 53] | 74 |
| O=C(NCc1cc(OCc2ccccc2F)ccc1F)c1cn2ncccc2n1 [Number 68] | 53 |
| O=C(NCc1cc(OCc2ccccc2F)ccc1F)c1cccc2nncn12 [Number 49] | 38 |
| O=C(NCc1cc(OCc2ccccc2F)ccc1F)c1cccn2nnnc12 [Number 81] | 88 |
| O=C(NCc1cc(OCc2ccccc2F)ccc1F)c1cccn2cncc12 [Number 87] | 66 |
| Cn1cc(CC(=O)NCc2cccc(OCc3ccccc3F)c2)c2ccccc21 [Number 75] | 74 |
| Cn1cccc(C(=O)NCc2cc(OCc3ccccc3F)ccc2F)c1=O [Number 58] | 52 |
| CC(C)(Oc1cccc(CNC(=O)c2cccn3cnnc23)c1)c1ccccc1F [Number 51] | 36 |
| O=C(NCc1cc(OCc2ccccc2F)ccc1F)c1nccn2ccnc12 [Number 48] | 100 |
| Cc1cnc2cc(C(=O)NCc3cccc(OCc4ccccc4F)c3)ccn12 [Number 83] | 59 |

Now from value to molecule:

| inhibition at 10 µM [%] | Compound |
| --- | --- |
| 30 | O=C(NCc1cccc(OCc2ccccc2F)c1)c1ccn2ncnc2c1 [Number 80] |
| 80 | O=C(NCc1cccc(OCc2ccccc2F)c1)c1cccc2ccnn12 [Number 50] |
| 53 | Cn1cccc(C(=O)NCc2cccc(OCc3ccccc3F)c2)c1=O [Number 57] |
| 70 | O=C(NCc1cccc(OCc2ccccc2F)c1)c1cccn2ncnc12 [Number 77] |
| 34 | O=C(NCc1cccc(OCc2ccccc2F)c1)c1cn2ccncc2n1 [Number 67] |
| 49 | O=C(NCc1cccc(OCc2ccccc2F)c1)c1cccc2cncn12 [Number 60] |
| 50 | O=C(NCc1cccc(OCc2ccccc2F)c1)c1cn2ncccc2n1 [Number 62] |
| 49 | O=C(NCc1cccc(OCc2ccccc2F)c1)c1ccc2nncn2c1 [Number 88] |
| 47 | O=C(NCc1cccc(OCc2ccccc2F)c1)c1cnc2ccccn12 [Number 73] |
| 66 | O=C(NCc1cccc(OCc2ccccc2F)c1)c1ccn2cnnc2c1 [Number 70] |
| 92 | O=C(NCc1cccc(OCc2ccccc2F)c1)c1cc2cccn2cn1 [Number 69] |
| 92 | O=C(NCc1cccc(OCc2ccccc2F)c1)c1cccn2cncc12 [Number 86] |
| 30 | Cn1ccc(C(=O)NCc2cccc(OCc3ccccc3F)c2)cc1=O [Number 66] |
| 48 | O=C(NCc1cccc(OCc2ccccc2F)c1)c1cccc2ncnn12 [Number 64] |
| 45 | O=C(NCc1cccc(OCc2ccccc2F)c1)c1ccc2cncn2c1 [Number 84] |
| 42 | O=C(NCc1cccc(OCc2ccccc2F)c1)c1cn2cccnc2n1 [Number 63] |
| 42 | O=C(NCc1cccc(OCc2ccccc2F)c1)c1cccn2nnnc12 [Number 79] |

Same assay, conditions: estimated eIC50 from 2-3 drug concentrations; inactivated state protocol; hNav1.7 stably expressed in human embryonic kidney cells

| Compound | IC50 [µM] |
| --- | --- |
| O=C(NCc1cc(OCc2ccccc2F)ccc1F)c1cccn2cnnc12 [Number 4] | 1.1 |
| CN(Cc1cccc(OCc2ccccc2F)c1)C(=O)c1cn2ccccc2n1 [Number 61] | 1.6 |
| O=C(NCc1cc(OCC2CCCCC2)ccc1F)c1ccn2ccnc2c1 [Number 1] | 0.41 |
| O=C(NCc1cc(OCc2ccccc2F)ccc1F)c1ccn2ccnc2c1 [Number 5] | 1.3 |
| O=C(NCc1cc(OCc2ccccc2F)ccc1F)c1cn2ccccc2n1 [Number 56] | 2.2 |
| CC(C)(NC(=O)c1ccn2ccnc2c1)c1cccc(OCC2CCCCC2)c1 [Number 12] | 0.51 |
| O=C(NCc1cccc(OCC2CCCCC2)c1)c1cccn2cnnc12 [Number 8] | 0.91 |
| O=C(NCc1cc(OCC2CCCCC2)ccc1F)c1cccn2cnnc12 [Number 6] | 0.13 |
| CC(C)(NC(=O)c1cccn2cnnc12)c1cccc(OCC2CCCCC2)c1 [Number 7] | 4.8 |
| O=C(NCc1cc(OCc2ccccc2F)ccc1F)c1cccc2ncnn12 [Number 65] | 10 |

Further lines, results first:

| IC50 [µM] | Compound |
| --- | --- |
| 2.7 | O=C(NCc1cccc(OCc2ccccc2F)c1)c1cccn2ccnc12 [Number 3] |
| 8.9 | O=C(NCc1cccc(OCc2ccccc2F)c1)c1ccn2ccnc2c1 [Number 9] |
| 1.3 | O=C(NCc1cccc(OCc2ccccc2F)c1)c1nccn2ccnc12 [Number 2] |
| 3.3 | O=C(NCc1cccc(OCc2ccccc2F)c1)c1cccn2cnnc12 [Number 10] |
